This is an account of results in patent US12338203B2 (TAISHO PHARMACEUTICAL CO., LTD., priority 2019, dated 2025).

Structures are written as SMILES.

The target of the assay is T1, human LPAR1 (Homo sapiens, UniProt Q92633).
T1 construct: expressed in transfected cells
T1 sequence (Q92633 whole entry): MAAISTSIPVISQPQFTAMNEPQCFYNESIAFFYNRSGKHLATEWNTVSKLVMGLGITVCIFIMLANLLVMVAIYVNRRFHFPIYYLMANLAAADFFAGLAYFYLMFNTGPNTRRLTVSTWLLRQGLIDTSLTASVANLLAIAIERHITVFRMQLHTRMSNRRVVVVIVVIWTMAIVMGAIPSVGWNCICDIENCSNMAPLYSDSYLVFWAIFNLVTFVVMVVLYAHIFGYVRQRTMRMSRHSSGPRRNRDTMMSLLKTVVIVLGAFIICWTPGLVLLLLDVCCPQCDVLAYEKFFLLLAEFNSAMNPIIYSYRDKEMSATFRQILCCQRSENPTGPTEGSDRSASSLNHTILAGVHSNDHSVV
Description: Test Example 1: antagonism against response of LPA-induced increase in intracellular Ca2+ concentration in RH7777 cells stably expressing human LPAR1. In kind it is cell-based. The note with it: RH7777 cells stably expressing human LPAR1; Fluo-4 fluorescence, FDSS6000; read-out: IC50 value (concentration producing 50% antagonism against response of LPA-induced increase in intracellular Ca2+ concentration) (converted). In outline: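 Ca2+ flux read at 540 nm emission (480 nm excitation) after LPA addition to human LPAR1-expressing RH7777 cells exposed to compound for 30 min, 37 °C, pH 7.4 HEPES-buffered HBSS. Response relative to no-compound control after basal subtraction; IC50 fitted from concentration–response.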
Turning to `CCOc1cc([C@@H](C)N(CCCCc2ccccc2)C(=O)NC2(C(=O)O)CCCC2)cc(OCC)c1C` [Example 1-113], the IC50 is 4.09 nM. As for `CCOc1cc([C@@H](C)N(CCC(F)(F)Cc2ccccc2)C(=O)NC2(C(=O)O)CC2)cc(OCC)c1C1CC1` [Example 4-80], the figure is 23.6 nM; as for `CCOc1cc([C@@H](C)N(CCCCc2ccccc2)C(=O)NC2(C(=O)O)CC(F)(F)C2)cc(OCC)c1C(C)O` (single isomer, unassigned) [Example 1-35], 1.81 nM; as for `CCOc1cc(C(C)N(CCCCc2ccccc2)C(=O)NC2(C(=O)O)CC(F)(F)C2)cc(OCC)c1C1CC1` (centres unmarked) [Example 1-25], 2.71 nM. Next, `CCOc1cc([C@@H](C)N(CCC(F)(F)Cc2ccccc2)C(=O)NC2(C(=O)O)CCC2)cc(OCC)c1C1CC1` [Example 4-82]: 4.1 nM; `CCOc1cc(C(C)N(CCCCc2ccccc2)C(=O)NC2(c3nn[nH]n3)CC(OC)C2)cc(OCC)c1C(C)=O` (centres unmarked) [Example 10-14]: 5.08 nM. As for `CCOc1cc([C@@H](C)N(CCC(F)(F)Cc2ccccc2)C(=O)NC2(C(=O)O)CC(F)(F)C2)cc(OCC)c1C(C)O` (single isomer, unassigned) [Example 4-85], the figure is 16.1 nM; as for `CCOc1cc(C(C)N(CCCCc2ccccc2)C(=O)NC2(C(=O)O)CC(F)(F)C2)cc(OCC)c1S(C)(=O)=O` (centres unmarked) [Example 1-57], 26.6 nM.

`CCOc1cc(C(C)N(CCCCc2ccccc2)C(=O)NC2(C(=O)O)CC(F)(F)C2)c(F)c(OCC)c1C` (centres unmarked) [Example 5-83]: the IC50 is 3.36 nM. `CCOc1cc(C(C)N(CCO[C@@H](C)c2ccccc2)C(=O)NC2(C(=O)O)CC(OC)C2)c(Cl)c(OCC)c1C1CC1` (some centres unmarked) [Example 5-202]: the IC50 is 1.62 nM.

On to `CCOc1cc([C@@H](C)N(CCO[C@@H](C)c2ccccc2)C(=O)NC2(C(=O)O)CCOCC2)c(Cl)c(OCC)c1C(C)=O` [Example 5-33], for which the IC50 is 2.77 nM. Next, `CCOc1cc(C(C)N(CCCCc2ccccc2)C(=O)NC2(c3nn[nH]n3)CCC2)cc(OCC)c1C(C)=O` (centres unmarked) [Example 10-6]: 1.88 nM; `CCOc1cc([C@@H](C)N(CCCCc2ccccc2)C(=O)NC2CCC[C@@H]2C(=O)O)cc(OCC)c1C(C)=O` (some centres unmarked) [Example 1-134]: 14.5 nM; `CCOc1cc([C@@H](C)N(CCCCC2CCNCC2)C(=O)NC2(C(=O)O)CC(F)(F)C2)cc(OCC)c1C` [Example 4-34, 1-({[(1R)-1-(3,5-Diethoxy-4-Methylphenyl)Ethyl][4-(Piperidin-4-Yl)Butyl]Carbamoyl}Amino)-3,3-Difluorocyclobutane-1-Carboxylic Acid]: 7630 nM.

`CCNc1cc(C(C)N(CCCCc2ccccc2)C(=O)NC2(C(=O)O)CC(F)(F)C2)cc(OCC)c1C(C)=O` (centres unmarked) [Example 5-102]: the IC50 is 7.35 nM. As for `CCOc1cc(C(C)N(CCCCc2ccccc2)C(=O)NC2(c3nn[nH]n3)CCCC2)cc(OCC)c1C` (centres unmarked) [Example 10-18], the figure is 38.4 nM; as for `COc1cc(C(C)N(CCCCc2ccccc2)C(=O)NC2(C(=O)O)CCC2)cc(OC)c1C` (centres unmarked) [Example 1-23], 13 nM; as for `CCOc1c(C(C)=O)ccc([C@@H](C)N(CCO[C@@H](C)c2ccccc2)C(=O)NC2(C(=O)O)CCC2)c1C` [Example 4-116], 3.91 nM.

For the compound `COc1cc([C@@H](C)N(CCO[C@@H](C)c2ccccc2)C(=O)NC2(C(=O)O)CC(OC)C2)c(Cl)c(OC)c1C(C)=O` (some centres unmarked) [Example 5-124], the IC50 was 10.8 nM. As for `Cc1c(OC2CC2)cc(C(C)N(CCCCc2ccccc2)C(=O)NC2(C(=O)O)CC(F)(F)C2)cc1OC1CC1` (centres unmarked) [Example 1-73], the figure is 7.43 nM. Next, `CCOc1c(C2CC2)ccc([C@@H](C)N(CCO[C@H](C)c2cccc(Cl)c2)C(=O)NC2(C(=O)O)CC(F)(F)C2)c1C` [Example 4-181]: 3.27 nM; `CCOc1cc([C@@H](C)N(CCCCc2ccccc2)C(=O)NC2CCC(C(=O)O)C2)cc(OCC)c1C` (some centres unmarked) [Example 1-142]: 49.2 nM. As for `CCOc1cc([C@@H](C)N(CCCCc2ccccc2)C(=O)NC2(C(=O)O)CC(OCC)C2)cc(OCC)c1C(C)=O` (some centres unmarked) [Example 1-97], the figure is 3.94 nM. Turning to `CCOc1cc([C@@H](C)N(CCCCc2ccccc2)C(=O)NC2(C(=O)O)CC(OCC)C2)cc(OCC)c1C(C)O` (some centres unmarked) [Example 1-99], the IC50 was 2.58 nM. As to `CCOc1c(C(C)O)ccc([C@@H](C)N(CCCCc2ccccc2)C(=O)NC2(C(=O)O)CC(F)(F)C2)c1C` (stereo partly drawn) [Example 1-77, 1-{[{(1R)-1-[3-Ethoxy-4-(1-Hydroxyethyl)-2-Methylphenyl]Ethyl}(4-Phenylbutyl) Carbamoyl]Amino}-3,3-Difluorocyclobutane-1-Carboxylic Acid], the IC50 is 3.12 nM. As to `Cc1ccc(C(C)N(CCCCc2ccccc2)C(=O)NC2(C(=O)O)CC(F)(F)C2)cc1` (centres unmarked) [Example 5-7], the IC50 was 132 nM. As for `CCOc1cc(C(C)N(CCCCc2ccccc2)C(=O)NC2(C(=O)O)CC(F)(F)C2)cc(OCC)c1C(=O)OC` (centres unmarked) [Example 1-60], the figure is 5.46 nM. For the compound `CCOc1cc([C@@H](C)N(CCO[C@@H](C)c2ccccc2)C(=O)N[C@]2(C(=O)O)C[C@@H](OCC)C2)cc(OCC)c1C1(O)CC1` [Example 4-137], the IC50 was 21.9 nM. `O=C(NC1(C(=O)O)CC(F)(F)C1)N(CCCCc1ccccc1)C1COc2c(Cl)cc(Cl)cc21` (centres unmarked) [Example 5-117]: the IC50 was 5.59 nM. Regarding `CCOc1cc([C@@H](C)N(CCCCc2ccccc2)C(=O)NC(C)(C)C(=O)O)cc(OCC)c1C(C)=O` [Example 1-1, N-{[(1R)-1-(4-Acetyl-3,5-Diethoxyphenyl)Ethyl](4-Phenylbutyl) Carbamoyl}-2-Methylalanine], the IC50 is 3.17 nM. On to `CCOc1cc([C@@H](C)N(CCCCc2ccccc2)C(=O)NC2(c3nn[nH]n3)CC(F)(F)C2)c(Cl)c(OCC)c1C(C)O` (some centres unmarked) [Example 10-10], for which the IC50 was 7.08 nM.

In the case of `CC(=O)c1ccc(C(C)N(CCCCc2ccccc2)C(=O)NC2(C(=O)O)CC(F)(F)C2)cc1` (centres unmarked) [Example 5-4], the IC50 is 128 nM. Next, `CCOc1cc([C@@H](C)N(CCCC(F)(F)c2ccccc2)C(=O)NC2(C(=O)O)CC(OC)C2)cc(OCC)c1C(C)O` (single isomer, unassigned) [Example 4-62]: 5.15 nM; `CCOC1CC(NC(=O)N(CCOC(C)c2ccccc2)C(C)c2cc(OC)c(C3CC3)c(OC)c2)(C(=O)O)C1` (centres unmarked) [Example 5-167]: 5.26 nM; `CCOc1cc(C(C)N(CCCCc2ccccc2)C(=O)NC2(C(=O)O)CC(F)(F)C2)cc(OCC)c1C(C)=O` (centres unmarked) [Example 1-29]: 3.12 nM.

Consider `CCCOc1cc(OC)cc(C(C)N(CCCCc2ccccc2)C(=O)NC2(C(=O)O)CC(F)(F)C2)c1` (centres unmarked) [Example 5-16], for which the IC50 was 8.97 nM. On to `CCOc1cc([C@@H](C)N(CCO[C@@H](C)c2ccccc2)C(=O)N[C@]2(C(=O)O)C[C@@H](OCC)C2)c(Cl)c(OCC)c1C(C)O` (single isomer, unassigned) [Example 5-62], for which the IC50 was 1.56 nM. Next, `CCOc1cc([C@@H](C)N(CCCCc2ccccc2)C(=O)NC2(C(=O)O)CC(F)(F)C2)c(Cl)c(OCC)c1C(C)O` (single isomer, unassigned) [Example 5-52]: 1.95 nM. For the compound `CCOc1cc(C(C)N(CCCCc2ccccc2)C(=O)NC2(C(N)=O)CCCC2)cc(OCC)c1C` (centres unmarked) [Example 6-1, 1-({[1-(3,5-Diethoxy-4-Methylphenyl)Ethyl](4-Phenylbutyl) Carbamoyl}Amino)Cyclopentane-1-Carboxamide], the IC50 was 1890 nM. As for `CC(c1ccc(F)cc1)N(CCCCc1ccccc1)C(=O)NC1(C(=O)O)CC(F)(F)C1` (centres unmarked) [Example 5-6], the figure is 164 nM; as for `CCOc1cc(C(C)N(CCCCc2ccccc2)C(=O)NC2CC(C(=O)O)C2)c(Cl)c(OCC)c1C(C)=O` (centres unmarked) [Example 5-45], 32.9 nM. As for `COc1cc([C@@H](C)N(CCCCc2ccccc2)C(=O)NC2(C(=O)O)CC(F)(F)C2)cc(OC)c1C` [Example 1-67], the figure is 1.6 nM; as for `CCOc1cc(C(C)N(CCOC(C)c2ccccc2)C(=O)NC2(C(=O)O)CC(OC)C2)c(Cl)c(OCC)c1C1CC1` (centres unmarked) [Example 5-207], 1.36 nM. As for `CCOc1cc([C@@H](C)N(CCO[C@@H](C)c2ccccc2)C(=O)N[C@]2(C(=O)O)C[C@@H](OC)C2)c(C)c(OCC)c1C` [Example 5-79], the IC50 was 1.21 nM. Take `CCOc1cc(C(C)N(CCCCc2ccccc2)C(=O)NC2(c3nc(=O)o[nH]3)CCCC2)cc(OCC)c1C` (centres unmarked) [Example 9-1, N-[1-(3,5-Diethoxy-4-Methylphenyl)Ethyl]-N′-[1-(5-Oxo-2,5-Dihydro-1,2,4-Oxadiazol-3-Yl)Cyclopentyl]-N-(4-Phenylbutyl) Urea]: the IC50 is 506 nM. As for `CCOc1cc(C(C)N(CCO[C@@H](C)c2ccccc2)C(=O)NC2(C(=O)O)CC(OCC)C2)c(Cl)c(OCC)c1C1CC1` (some centres unmarked) [Example 5-216], the figure is 2.56 nM; as for `COc1cc(C(C)N(CCOCc2ccccc2)C(=O)NC2(C(=O)O)CC(F)(F)C2)cc(OC)c1C1CC1` (centres unmarked) [Example 5-142], 1.74 nM. Take `C=C(C)c1c(OCC)cc(C(C)N(CCCCc2ccccc2)C(=O)NC2(C(=O)O)CC(F)(F)C2)cc1OCC` (centres unmarked) [Example 1-54]: the IC50 was 3.25 nM.

For the compound `CCOc1cccc(C(C)N(CCCCc2ccccc2)C(=O)NC2(C(=O)O)CC(F)(F)C2)c1` (centres unmarked) [Example 5-3], the IC50 is 45.5 nM. As for `COCc1cc(OC)cc(C(C)N(CCCCc2ccccc2)C(=O)NC2(C(=O)O)CC(F)(F)C2)c1` (centres unmarked) [Example 5-14], the IC50 was 19.1 nM. With `CCOc1cc(C(C)N(CCCCc2ccccc2)C(=O)NC2(C(=O)O)CC(F)(F)C2)cc2c1CCO2` (centres unmarked) [Example 5-92], the IC50 is 23.1 nM. Next, `CCOc1cc([C@@H](C)N(CCO[C@@H](C)c2cccc(Cl)c2)C(=O)NC2(C(=O)O)CCC2)c(Cl)c(OCC)c1C(C)=O` [Example 4-176]: 15.3 nM.

Consider `CCOc1cc([C@@H](C)N(CCCC(F)(F)c2ccccc2)C(=O)NC2(C(=O)O)CC2)cc(OCC)c1C(C)O` (some centres unmarked) [Example 4-47], for which the IC50 was 10.5 nM.
